# Assay results: EP4563571A1, “PRMT5 INHIBITORS” (Beijing Earthwise Technology Co., Ltd., priority 2022, dated 2024)
# Read-outs that look alike come from different tables or passages of the source.
# Columns and labels:
# [1] = system: HCT116^MTAP Deletion cells; experiment: Anti-proliferation assay on cells (Cell-Titer Glo, 10 days); assay type: cell-based
# Summary of the method: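 HCT116^MTAP Deletion cells seeded at 50 cells/well and exposed to 10-point 3-fold compound dilutions in duplicate (0.1% DMSO) for 10 days at 37 °C. Viability read by CellTiter-Glo luminescence; IC50 derived from GI50 curves of concentration versus inhibition.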
# [2] = system: HCT116 cells; experiment: as above; assay type: cell-based; settings: for Selectivity multiple of HCT116^MTAP WT GI50/ HCT116^MTAP Deletion GI50: ratio of GI50 values
# Description: Assay example 1: Method of anti-proliferation assay on cells
# HCT116^MTAP Deletion cells were from Pharmaron (China); HCT116 cells were from ATCC; McCoy's 5A medium was purchased from Invitrogen (USA); penicillin-streptomycin and fetal bovine serum were purchased from Gibco (USA); a 384-well plate was purchased from PerkinElmer (USA); and Cell-Titer Glo reagent was purchased from Promega (USA).
# Compound dissolution: All the compounds were dissolved in dimethyl sulfoxide (DMSO) and then stored. The compounds were stored at room temperature in a dry condition for 3 months for short term storage or at -20 °C for long term storage.
# Cell culture and passaging
# The cells were cultured strictly in accordance with ATCC requirements. The cell culture medium (McCoy's 5A medium + 10% fetal bovine serum + 1% penicillin + streptomycin) was transferred to a 15 mL centrifuge tube and centrifuged at 1000 rpm for 5 min. The supernatant was removed. The cells were resuspended with complete culture medium, inoculated into a culture dish at the required density, and cultured in an incubator at 37 °C, 95% humid air, and 5% carbon dioxide. The culture medium was replenished or the cells were passaged every 2-3 days depending on the cell growth condition.
# Cell proliferation activity assay
# When the confluency of cells in the culture dish reached about 90%, the cells were washed twice with PBS, and then treated with trypsin to become single cells. The cells were counted, and 40µl of the cells was inoculated into each well of a 384-well plate (50 cells/well). The plate was equilibrated at 37 °C and 5% carbon dioxide for 10 to 15 minutes. The compounds were injected into the 384-well plate using Echo550, and positive control and negative control (0.1% DMSO) were set up. Each compound was subjected to a 3-fold dilution, resulting in 10 concentration gradients, in duplicate, and the content of DMSO was 0.1%. The 384-well plate was incubated in a cell culture incubator for 10 days.
# Then, 40 µl of cell proliferation assay reagent (CTG) was added to the 384-well plate, and the plate was shaken to mix well. Then, the 384-well plate was incubated at 37 °C and 5% carbon dioxide in the dark for 30 minutes. The data were read using the Envision multifunctional microplate reader. […] According to the different drug concentrations and their corresponding inhibition rates, the GI50 curve was drawn using GraphPad 8.0 software. The data were analyzed, and the final IC50 value was obtained.
# In addition, the compounds of the present disclosure also have selectivity for mutant HCT116 cells. […] The selectivity data of representative compounds are shown in Table 2: Table 2 Selectivity data of representative compounds
# [3] = 240 h, HCT116^MTAP Deletion cells, 10 days incubation, CTG readout, read-out: HCT116^MTAP Deletion GI50
# [4] = HCT116^MTAP Deletion cells, 10 days incubation, CTG readout, read-out: HCT116^MTAP Deletion GI50
"GI50 [1, 3] [nM]",Selectivity multiple of HCT116^MTAP WT GI50/ HCT116^MTAP Deletion GI50 [2],Structure (SMILES),further results
10 to 100,337,CN(C(=O)C(=O)Nc1cnc(N)c2c1cnn2C)C1COc2cc(-c3cnc(C(F)(F)F)s3)ccc21 (centres unmarked) [Example 164],
10 to 100,144,CN(C(=O)C(=O)Nc1cnc(N)c2c1cnn2C)C1COCc2cc(C3CC3)ccc21 (centres unmarked) [Example 104],
,247,Cc1ncc(-c2ccc3c(c2)COCC3N(C)C(=O)C(=O)Nc2cnc(N)c3c2cnn3C)s1 (centres unmarked) [Example 181-P1],
,169,CN(C(=O)C(=O)Nc1cnc(N)c2c1cnn2C)C1COc2cc(-c3ccnn3C)ccc21 (centres unmarked) [Example 161],"GI50 [1, 4]: < 10 nM"
,94,"CN(C(=O)C(=O)Nc1cnc(N)c2c1cnn2C)C1COCc2cc(Cl)c(Cl)cc21 (single isomer, unassigned) [Example 163-P1]",
,59,"CC1OCC(N(C)C(=O)C(=O)Nc2cnc(N)c3c2cnn3C)c2ccc(C(F)(F)F)cc21 (single isomer, unassigned) [Example 187-P2]",
< 10,144,CN(C(=O)C(=O)Nc1cnc(N)c2c1cnn2C)C1COCc2cc(Br)ccc21 (centres unmarked) [Example 94],
,160,CN(C(=O)C(=O)Nc1cnc(N)c2c1cnn2C)C1COc2cc(C(F)(F)F)ccc21 (centres unmarked) [Example 89],"GI50 [1, 4]: < 10 nM"
,210,CN(C(=O)C(=O)Nc1cnc(N)c2c1cnn2C)C1COc2cc(Cl)c(Cl)cc21 (centres unmarked) [Example 186-P1],
,285,CN(C(=O)C(=O)Nc1cnc(N)c2c1cnn2C)C1COCc2cc(-c3cnn(C)c3)ccc21 (centres unmarked) [Example 99],"GI50 [1, 4]: < 10 nM"
< 10,61,CN(C(=O)C(=O)Nc1cnc(N)c2c1cnn2C)C1COCc2cc(C(F)(F)F)c(F)cc21 (centres unmarked) [Example 167],
< 10,226,CN(C(=O)C(=O)Nc1cnc(N)c2c1cnn2C)C1COCc2c1ccc(C(F)(F)F)c2F (centres unmarked) [Example 195],
,147,CN(C(=O)C(=O)Nc1cnc(N)c2c1cnn2C)C1COCc2c1ccc(Cl)c2Cl (centres unmarked) [Example 168-P1],
,78,"CC1OCC(N(C)C(=O)C(=O)Nc2cnc(N)c3c2cnn3C)c2ccc(C(F)(F)F)cc21 (single isomer, unassigned) [Example 187-P1]",
< 10,354,CN(C(=O)C(=O)Nc1cnc(N)c2c1cnn2C)C1COCc2cc(C#N)ccc21 (centres unmarked) [Example 111],
10 to 100,,CN(C(=O)C(=O)Nc1cnc(N)c2c1cnn2C)C1COc2cc(C#N)ccc21 (centres unmarked) [Example 198],
10 to 100,295,Cc1cc(-c2ccc3c(c2)OCC3N(C)C(=O)C(=O)Nc2cnc(N)c3c2cnn3C)on1 (centres unmarked) [Example 165],
< 10,,Cc1nn(C)cc1-c1ccc2c(c1)COCC2N(C)C(=O)C(=O)Nc1cnc(N)c2c1cnn2C (centres unmarked) [Example 200],
,215,CN(C(=O)C(=O)Nc1cnc(N)c2c1cnn2C)C1COCc2cc(-c3cnn(C)c3)ccc21 (centres unmarked) [Example 124-P1],"GI50 [1, 4]: < 10 nM"
100 to 1000,,CN(C(=O)C(=O)Nc1cnc(N)c2c1cnn2C)C1COc2cc(-c3nncn3C3CC3)ccc21 (centres unmarked) [Example 228],

# Continued, molecule first:
Structure (SMILES),"GI50 [1, 3] [nM]",Selectivity multiple of HCT116^MTAP WT GI50/ HCT116^MTAP Deletion GI50 [2],further results
C[C@H](c1ncccn1)N(Cc1ccc(C(F)(F)F)cn1)C(=O)C(=O)Nc1cnc(N)c2cnn(C)c12 [Example 34],,,"GI50 [1, 4]: 100 to 1000 nM; GI50 ([1]; read-out: GI50 for HCT116^MTAP Deletion): ≤ 100 nM; selectivity for mutant HCT116 cells ([2]; HCT116 GI50 versus HCT116^MTAP Deletion GI50, text b891): more than 300 times; GI50 ([2]; HCT116 cells): 1000 to 10000 nM"
CN(C(=O)C(=O)Nc1cnc(N)c2c1cnn2C)C1COCc2cc(C3=CCC(F)(F)CC3)ccc21 (centres unmarked) [Example 157],< 10,193,
CN(C(=O)C(=O)Nc1cnc(N)c2c1cnn2C)C1COCc2cc(-c3ccn(C)n3)ccc21 (centres unmarked) [Example 93],10 to 100,244,
Cn1ncc2c(NC(=O)C(=O)N(C3CC3)C3COCc4cc(C(F)(F)F)ccc43)cnc(N)c21 (centres unmarked) [Example 98],< 10,106,
CCC(C)N(Cc1ccc(OC(F)(F)F)cn1)C(=O)C(=O)Nc1cnc(N)c2c1cnn2C (centres unmarked) [Example 113],< 10,125,
Cc1ccc(-c2ccc3c(c2)COCC3N(C)C(=O)C(=O)Nc2cnc(N)c3c2cnn3C)cn1 (centres unmarked) [Example 184],< 10,221,
CCC(C)N(Cc1ccc(-c2ccn(C)n2)cn1)C(=O)C(=O)Nc1cnc(N)c2c1cnn2C (centres unmarked) [Example 88],< 10,161,
Cc1ncccc1-c1ccc2c(c1)COCC2N(C)C(=O)C(=O)Nc1cnc(N)c2c1cnn2C (centres unmarked) [Example 201],< 10,128,
CN(C(=O)C(=O)Nc1cnc(N)c2c1cnn2C)C1COCc2cc(-c3cnc(C4CC4)s3)ccc21 (centres unmarked) [Example 194],< 10,429,
CCC(C)N(Cc1ccc(-c2cnn(C)c2)cn1)C(=O)C(=O)Nc1cnc(N)c2c1cnn2C (centres unmarked) [Example 90],< 10,119,
CN(C(=O)C(=O)Nc1cnc(N)c2c1cnn2C)C1COCc2cc(C3=CCOCC3)ccc21 (centres unmarked) [Example 100],,179,"GI50 [1, 4]: < 10 nM"
CC(C)C(C)N(Cc1ccc(C(F)(F)F)cn1)C(=O)C(=O)Nc1cnc(N)c2c1cnn2C (centres unmarked) [Example 110-P1],< 10,146,
Cc1nn(C)c(C)c1-c1ccc2c(c1)COCC2N(C)C(=O)C(=O)Nc1cnc(N)c2c1cnn2C (centres unmarked) [Example 178],< 10,116,
CN(C(=O)C(=O)Nc1cnc(N)c2c1cnn2C)C1COCc2cc(-c3cccnc3)ccc21 (centres unmarked) [Example 95],< 10,224,
"CCC(C)N(Cc1ccc(C(F)(F)F)cn1)C(=O)C(=O)Nc1cnc(OC)c(C(N)=O)c1 (single isomer, unassigned) [Example 5-P2]",,,"GI50 [1, 4]: 10 to 100 nM"
CC(c1cscn1)N(Cc1ccc(C(F)(F)F)cn1)C(=O)C(=O)Nc1cnc(N)c2c1COC2 (centres unmarked) [Example 68],10 to 100,,
CCC(C)N(Cc1ccc(C2CC2)cn1)C(=O)C(=O)Nc1cnc(N)c(C)c1 (centres unmarked) [Example 71],10 to 100,,
CN(C(=O)C(=O)Nc1cnc(N)c2c1cnn2C)C1COc2cc(-c3cnc(C4CC4)s3)ccc21 (centres unmarked) [Example 236],,,"GI50 [1, 4]: < 10 nM"
CC(C)N(C(=O)C(=O)Nc1cnc(N)c2c1cnn2C)C1COCc2cc(C(F)(F)F)ccc21 (centres unmarked) [Example 96],10 to 100,,
Cc1cc(NC(=O)C(=O)N(Cc2ccc(C(F)(F)F)cn2)C2CCC2)cnc1N [Example 13],,,"GI50 [1, 4]: 100 to 1000 nM"
COc1ncc(NC(=O)C(=O)N(Cc2ccc(C(F)(F)F)cn2)[C@H](C)c2ncccn2)cc1C(N)=O [Example 25],,,"GI50 [1, 4]: 10 to 100 nM"
CCC(C)N(Cc1ccc(C(F)(F)F)cc1)C(=O)C(=O)Nc1cnc(N)c(C)c1 (centres unmarked) [Example 59],10 to 100,,
CN(C(=O)C(=O)Nc1cnc(N)c2c1cnn2C)C1COCc2c1ccc(F)c2F (centres unmarked) [Example 141-P1],,,"GI50 [1, 4]: 10 to 100 nM"
CN(C(=O)C(=O)Nc1cnc(N)c2c1cnn2C)C1COCc2cc(-c3ccc(C(F)(F)F)nc3)ccc21 (centres unmarked) [Example 185],< 10,240,
COc1ccc(-c2ccc3c(c2)COCC3N(C)C(=O)C(=O)Nc2cnc(N)c3c2cnn3C)cn1 (centres unmarked) [Example 202],< 10,,
CN(C(=O)C(=O)Nc1cnc(N)c2c1cnn2C)C1COCc2c1ccc(F)c2F (centres unmarked) [Example 141-P2],,,"GI50 [1, 4]: 100 to 1000 nM"
